Data from ChEMBL document CHEMBL1201862, “PubChem BioAssay data set” (2004).
Calls of active or inactive are those of the source.

Assays:
Bcl-2-related protein A1 [1] = target: T1, Bcl-2-related protein A1 (Mus musculus, UniProt Q07440); test: small-molecule antagonists of Bfl-1/BH3 interaction – biochemical, TR-FRET, mouse Bfl-1, confirmation (AID 621);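 note: TR-FRET binding of GST-Bfl-1 to FITC-labelled Bid peptide via terbium antibody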
T1 sequence (Q07440 whole entry): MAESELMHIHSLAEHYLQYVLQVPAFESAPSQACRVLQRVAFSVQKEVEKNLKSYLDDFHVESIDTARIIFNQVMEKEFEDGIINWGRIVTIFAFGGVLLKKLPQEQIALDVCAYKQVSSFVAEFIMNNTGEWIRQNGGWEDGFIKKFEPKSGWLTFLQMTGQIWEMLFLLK

Bcl-2-related protein A1 [2] = target: T1, Bcl-2-related protein A1; test: Bfl-1 binding inhibitors, SAR follow-up, biochemical, fluorescence polarization (AID 1070)
[3] = target: Peroxisome proliferator-activated receptor gamma/Nuclear receptor coactivator 2 (Homo sapiens, UniProt P37231); format: functional;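 note: agonist potency for raising coactivator recruitment to the receptor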
[4] = target: Peroxisome proliferator-activated receptor gamma/Nuclear receptor coactivator 1 (Homo sapiens, UniProt P37231); format: functional;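 note: agonist potency as compounds enhance coactivator SRC-1 recruitment to PPARgamma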
[5] = target: Peroxisome proliferator-activated receptor gamma/Nuclear receptor coactivator 3 (Homo sapiens, UniProt P37231); format: functional;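 note: agonist potency for raising coactivator recruitment to the receptor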
BJ [6] = test: BJ-TERT fibroblast viability loss – cell-based, RAS-independent, luminescence, dose response (AID 1933); format: functional; settings: Homo sapiens
BJ [7] = test: cells; format: functional, cell-based; settings: Homo sapiens
BJ [8] = test: BJ-TERT-LT-ST fibroblast viability loss – cell-based, RAS-independent, luminescence, dose response (AID 1935); format: functional; settings: Homo sapiens;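 note: BJ fibroblasts immortalized with TERT plus LT and ST oncogenes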
[9] = DRD fibroblast viability loss – cell-based, non-viral oncogenic, luminescence, dose response (AID 1934); format: functional; settings: Homo sapiens
[10] = A549 cell cytotoxicity, dose response, cytotoxicity control, plate reader, cherry-pick, antagonist series (AID 743412); format: functional, cell-based
[11] = toxicity toward HepG2 liver cells – cell-based, plate reader, cherry-pick, antagonist series, cytotoxicity control, dose response (AID 743416); format: functional
[12] = blockers of bursicon-stimulated LGR2 cAMP reporter – cell-based, HEK293, CRE-luciferase reporter, cherry pick, set 2, dose response (AID 743343); format: functional;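 note: transfected cells were stimulated with diluted bursicon conditioned medium after compound addition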
[13] = blockade of melanocortin 4 receptor signaling – cell-based, plate reader, cherry pick, counter-screen for LGR2 antagonist project, dose response (AID 743444); format: functional;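 note: transfected HEK 293 cells stimulated with alpha-MSH peptide; potency of inhibitors of the alpha-MSH evoked signal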
[14] = viability loss in HEK293 cells – cell-based, plate reader, cherry-picked samples, cytotoxicity control, dose response (AID 743446); format: functional
[15] = target: T2, RNA-binding protein pos-1 (Caenorhabditis elegans, UniProt G5EF15); test: disruptors of C. elegans POS-1 RNA interaction – biochemical, fluorescence polarization, dose response (AID 1964);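 note: purified POS-1 fused to maltose binding protein made in E. coli; potency of compounds blocking POS-1 binding to fluorescent RNA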
T2 sequence (G5EF15 whole entry): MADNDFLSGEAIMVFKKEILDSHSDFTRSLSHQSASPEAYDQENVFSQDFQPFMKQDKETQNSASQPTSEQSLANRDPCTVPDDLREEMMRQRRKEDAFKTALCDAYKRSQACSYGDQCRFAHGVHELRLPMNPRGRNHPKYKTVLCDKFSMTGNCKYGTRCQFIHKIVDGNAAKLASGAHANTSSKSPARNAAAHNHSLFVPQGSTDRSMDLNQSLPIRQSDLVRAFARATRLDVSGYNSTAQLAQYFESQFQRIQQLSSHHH

[16] = target: T3, Zinc finger protein mex-5 (Caenorhabditis elegans, UniProt Q9XUB2); test: potency of MEX-5 RNA-binding blockers – biochemical, C. elegans, fluorescence polarization, dose response (AID 1960)
T3 sequence (Q9XUB2 whole entry): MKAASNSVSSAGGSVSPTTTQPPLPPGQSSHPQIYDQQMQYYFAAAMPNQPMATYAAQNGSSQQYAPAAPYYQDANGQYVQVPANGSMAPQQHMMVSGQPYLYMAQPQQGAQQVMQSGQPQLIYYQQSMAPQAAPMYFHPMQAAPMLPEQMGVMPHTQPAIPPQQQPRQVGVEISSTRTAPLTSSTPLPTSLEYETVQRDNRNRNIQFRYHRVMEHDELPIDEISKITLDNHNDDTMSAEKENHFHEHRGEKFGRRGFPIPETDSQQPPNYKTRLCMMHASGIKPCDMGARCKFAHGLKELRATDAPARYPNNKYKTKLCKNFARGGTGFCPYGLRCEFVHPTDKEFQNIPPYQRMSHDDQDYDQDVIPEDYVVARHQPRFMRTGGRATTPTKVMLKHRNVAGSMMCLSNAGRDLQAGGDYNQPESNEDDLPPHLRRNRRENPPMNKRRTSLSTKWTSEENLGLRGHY

[17] = target: T4, Histone-lysine N-methyltransferase NSD2 (Homo sapiens, UniProt O96028); format: biochemical
T4 sequence (O96028 whole entry): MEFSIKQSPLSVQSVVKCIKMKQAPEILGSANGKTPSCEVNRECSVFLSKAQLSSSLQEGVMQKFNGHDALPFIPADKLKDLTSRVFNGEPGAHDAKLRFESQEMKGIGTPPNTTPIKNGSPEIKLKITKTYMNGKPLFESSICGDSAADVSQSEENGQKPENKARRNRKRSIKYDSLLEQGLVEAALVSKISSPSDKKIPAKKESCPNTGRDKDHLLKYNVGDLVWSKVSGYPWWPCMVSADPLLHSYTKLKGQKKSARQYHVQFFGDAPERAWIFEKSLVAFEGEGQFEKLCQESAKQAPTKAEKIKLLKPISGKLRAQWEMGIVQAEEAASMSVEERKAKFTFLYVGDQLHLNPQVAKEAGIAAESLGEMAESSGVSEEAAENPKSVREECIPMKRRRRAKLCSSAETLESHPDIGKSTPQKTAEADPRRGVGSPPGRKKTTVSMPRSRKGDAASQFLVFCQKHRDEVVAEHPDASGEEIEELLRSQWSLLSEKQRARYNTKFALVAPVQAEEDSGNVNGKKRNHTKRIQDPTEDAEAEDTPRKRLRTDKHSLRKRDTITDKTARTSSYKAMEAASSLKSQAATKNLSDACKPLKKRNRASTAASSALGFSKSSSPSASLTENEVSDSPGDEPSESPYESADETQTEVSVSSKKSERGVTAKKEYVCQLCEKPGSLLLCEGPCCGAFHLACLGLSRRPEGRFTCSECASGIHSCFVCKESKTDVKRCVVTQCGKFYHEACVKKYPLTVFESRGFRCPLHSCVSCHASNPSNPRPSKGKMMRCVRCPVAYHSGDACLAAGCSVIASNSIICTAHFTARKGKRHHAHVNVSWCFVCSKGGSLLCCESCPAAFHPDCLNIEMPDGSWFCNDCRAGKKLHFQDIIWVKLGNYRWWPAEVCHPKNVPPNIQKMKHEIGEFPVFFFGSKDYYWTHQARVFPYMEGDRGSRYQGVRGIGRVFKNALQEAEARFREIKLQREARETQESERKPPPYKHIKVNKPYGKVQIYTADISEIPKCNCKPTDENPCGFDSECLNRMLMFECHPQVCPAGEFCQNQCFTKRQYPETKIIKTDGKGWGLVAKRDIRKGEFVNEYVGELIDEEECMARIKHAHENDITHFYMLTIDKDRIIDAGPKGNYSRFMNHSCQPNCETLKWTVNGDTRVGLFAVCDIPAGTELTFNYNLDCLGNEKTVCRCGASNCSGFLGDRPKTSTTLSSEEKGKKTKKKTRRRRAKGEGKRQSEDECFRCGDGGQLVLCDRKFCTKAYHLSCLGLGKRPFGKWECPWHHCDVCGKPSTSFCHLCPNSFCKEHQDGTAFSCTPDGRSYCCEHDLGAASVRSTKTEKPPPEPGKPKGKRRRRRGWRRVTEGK

H4 = test: Luminescence Cell-Based Dose Response HTS to Identify Activators of 5'UTR Stem-Loop Driven Prion Protein mRNA Translation in H4 Neuroglioblastoma Cells. [Related pubchem assays: 1829 (Project Summary), 1814 (Primary HTS)]; format: functional; settings: Homo sapiens
Protein Tat = target: T5, Protein Tat (Human immunodeficiency virus type 1 group M subtype B (isolate HXB2)(HIV-1), UniProt P04608); format: functional;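 note: tat binding to TAR RNA read out by fluorescence polarization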
T5 sequence (P04608 whole entry): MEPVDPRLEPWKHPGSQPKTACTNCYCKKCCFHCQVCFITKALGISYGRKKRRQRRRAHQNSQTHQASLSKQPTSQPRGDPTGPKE

[18] = viability loss in HepG2 hepatoma cells – cell-based, ATP luminescence, cherry-pick, activator set 2, cytotoxicity control, dose response (AID 1053143); format: functional
[19] = target: T6, E3 ubiquitin-protein ligase XIAP (Homo sapiens, UniProt P98170); test: Counter Screen using XIAP-Bir3 for Chemical Antagonists of Bir1/2 domains of IAP-family anti-apoptotic proteins. [Related pubchem assays (depositor defined):AID1018, AID1449, AID1514, AID1638, AID1749, AID1750, AID488957, AID488963]
[20] = target: T6, E3 ubiquitin-protein ligase XIAP; test: small molecules displacing peptide from XIAP – biochemical, IAP family, fluorescence polarization (AID 1018); format: functional
[21] = target: T7, Heat shock factor protein 1 (Mus musculus, UniProt P38532); test: decrease of HSF1-responsive luciferase luminescence – cell-based, NIH3T3, dose retest, confirmation (AID 2382); format: functional;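 note: NIH3T3 fibroblasts with HSF1-driven luciferase reporter stressed by proteasome inhibitor MG132; luminescence from HSF1-driven luciferase expression after 8 hours of MG132 stress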
T7 sequence (P38532 whole entry): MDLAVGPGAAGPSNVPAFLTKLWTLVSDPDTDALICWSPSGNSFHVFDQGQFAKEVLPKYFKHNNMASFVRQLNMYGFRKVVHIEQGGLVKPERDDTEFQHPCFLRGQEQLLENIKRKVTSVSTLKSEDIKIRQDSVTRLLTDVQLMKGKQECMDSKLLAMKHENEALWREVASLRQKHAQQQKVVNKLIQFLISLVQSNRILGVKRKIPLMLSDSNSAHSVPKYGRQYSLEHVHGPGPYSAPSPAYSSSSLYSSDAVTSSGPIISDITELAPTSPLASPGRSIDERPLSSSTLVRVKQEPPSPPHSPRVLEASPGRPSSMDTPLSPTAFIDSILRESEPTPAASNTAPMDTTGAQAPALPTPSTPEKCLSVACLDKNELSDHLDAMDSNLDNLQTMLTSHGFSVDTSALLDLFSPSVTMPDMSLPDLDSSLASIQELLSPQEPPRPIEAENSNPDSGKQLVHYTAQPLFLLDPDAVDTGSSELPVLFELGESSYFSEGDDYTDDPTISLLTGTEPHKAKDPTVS

T6 sequence (P98170 whole entry): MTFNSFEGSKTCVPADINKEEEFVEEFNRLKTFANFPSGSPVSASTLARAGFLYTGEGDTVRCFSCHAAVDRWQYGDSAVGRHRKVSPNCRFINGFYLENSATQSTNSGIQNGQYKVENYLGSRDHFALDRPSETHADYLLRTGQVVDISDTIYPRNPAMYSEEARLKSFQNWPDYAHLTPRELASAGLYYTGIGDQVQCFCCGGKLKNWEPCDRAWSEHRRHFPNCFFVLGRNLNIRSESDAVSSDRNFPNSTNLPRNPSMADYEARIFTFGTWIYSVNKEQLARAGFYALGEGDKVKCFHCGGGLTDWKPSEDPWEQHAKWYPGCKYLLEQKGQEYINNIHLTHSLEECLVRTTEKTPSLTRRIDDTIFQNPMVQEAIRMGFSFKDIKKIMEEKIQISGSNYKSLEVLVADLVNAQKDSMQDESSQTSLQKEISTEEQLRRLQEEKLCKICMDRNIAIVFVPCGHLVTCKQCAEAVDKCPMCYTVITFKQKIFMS
Sequence of Peroxisome proliferator-activated receptor gamma/Nuclear receptor coactivator 3 (P37231 whole entry): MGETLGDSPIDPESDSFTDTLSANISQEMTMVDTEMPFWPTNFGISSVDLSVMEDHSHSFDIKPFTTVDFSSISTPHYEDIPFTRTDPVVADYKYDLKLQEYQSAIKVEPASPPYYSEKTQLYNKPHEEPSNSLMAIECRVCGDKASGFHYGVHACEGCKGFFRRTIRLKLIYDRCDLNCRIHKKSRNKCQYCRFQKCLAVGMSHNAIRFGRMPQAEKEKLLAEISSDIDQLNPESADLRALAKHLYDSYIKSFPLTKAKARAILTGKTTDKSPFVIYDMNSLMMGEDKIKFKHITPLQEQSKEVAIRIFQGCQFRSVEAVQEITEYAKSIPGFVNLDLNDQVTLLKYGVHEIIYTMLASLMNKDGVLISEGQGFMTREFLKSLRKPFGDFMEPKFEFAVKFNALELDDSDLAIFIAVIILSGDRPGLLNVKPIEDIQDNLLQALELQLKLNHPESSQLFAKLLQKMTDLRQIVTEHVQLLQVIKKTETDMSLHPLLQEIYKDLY
Sequence of Peroxisome proliferator-activated receptor gamma/Nuclear receptor coactivator 3 (Q9Y6Q9 whole entry, further chain): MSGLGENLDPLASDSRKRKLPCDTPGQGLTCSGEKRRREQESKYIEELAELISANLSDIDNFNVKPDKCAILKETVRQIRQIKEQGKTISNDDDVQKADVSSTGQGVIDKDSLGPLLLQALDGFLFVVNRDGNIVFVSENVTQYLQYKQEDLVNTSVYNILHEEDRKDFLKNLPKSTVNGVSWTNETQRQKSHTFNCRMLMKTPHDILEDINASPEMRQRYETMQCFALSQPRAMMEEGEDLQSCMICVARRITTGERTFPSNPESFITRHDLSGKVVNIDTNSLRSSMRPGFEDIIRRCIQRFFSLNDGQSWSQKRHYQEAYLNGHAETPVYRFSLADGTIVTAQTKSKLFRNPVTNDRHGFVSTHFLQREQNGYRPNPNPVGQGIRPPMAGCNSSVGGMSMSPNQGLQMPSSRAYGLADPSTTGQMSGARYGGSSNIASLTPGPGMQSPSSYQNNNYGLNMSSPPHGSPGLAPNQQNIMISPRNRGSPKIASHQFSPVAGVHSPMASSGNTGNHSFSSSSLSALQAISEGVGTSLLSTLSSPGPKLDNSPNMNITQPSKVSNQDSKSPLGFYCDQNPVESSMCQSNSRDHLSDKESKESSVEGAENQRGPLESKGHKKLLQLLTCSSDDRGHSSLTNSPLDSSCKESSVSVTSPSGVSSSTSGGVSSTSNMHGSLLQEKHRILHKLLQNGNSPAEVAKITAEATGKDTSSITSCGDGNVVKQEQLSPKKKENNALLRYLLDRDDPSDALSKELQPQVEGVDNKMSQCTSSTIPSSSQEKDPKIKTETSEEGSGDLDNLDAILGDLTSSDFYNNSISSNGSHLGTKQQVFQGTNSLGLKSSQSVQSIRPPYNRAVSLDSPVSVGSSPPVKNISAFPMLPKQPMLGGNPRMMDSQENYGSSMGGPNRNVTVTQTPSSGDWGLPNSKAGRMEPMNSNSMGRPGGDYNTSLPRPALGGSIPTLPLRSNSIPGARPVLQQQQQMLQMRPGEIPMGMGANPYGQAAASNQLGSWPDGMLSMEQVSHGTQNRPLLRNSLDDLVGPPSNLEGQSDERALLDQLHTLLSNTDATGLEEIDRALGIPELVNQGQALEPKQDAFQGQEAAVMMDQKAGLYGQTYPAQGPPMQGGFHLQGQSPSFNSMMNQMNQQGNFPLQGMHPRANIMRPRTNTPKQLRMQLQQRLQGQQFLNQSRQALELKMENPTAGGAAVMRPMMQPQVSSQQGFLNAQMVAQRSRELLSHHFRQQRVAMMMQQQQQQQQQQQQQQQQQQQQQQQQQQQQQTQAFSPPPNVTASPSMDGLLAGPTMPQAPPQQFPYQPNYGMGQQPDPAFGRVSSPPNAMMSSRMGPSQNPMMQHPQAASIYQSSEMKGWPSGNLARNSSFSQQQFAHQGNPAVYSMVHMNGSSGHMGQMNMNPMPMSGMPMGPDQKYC
Sequence of Peroxisome proliferator-activated receptor gamma/Nuclear receptor coactivator 1 (P37231 whole entry): as the sequence (P37231 whole entry) above
Sequence of Peroxisome proliferator-activated receptor gamma/Nuclear receptor coactivator 1 (Q15788 whole entry, further chain): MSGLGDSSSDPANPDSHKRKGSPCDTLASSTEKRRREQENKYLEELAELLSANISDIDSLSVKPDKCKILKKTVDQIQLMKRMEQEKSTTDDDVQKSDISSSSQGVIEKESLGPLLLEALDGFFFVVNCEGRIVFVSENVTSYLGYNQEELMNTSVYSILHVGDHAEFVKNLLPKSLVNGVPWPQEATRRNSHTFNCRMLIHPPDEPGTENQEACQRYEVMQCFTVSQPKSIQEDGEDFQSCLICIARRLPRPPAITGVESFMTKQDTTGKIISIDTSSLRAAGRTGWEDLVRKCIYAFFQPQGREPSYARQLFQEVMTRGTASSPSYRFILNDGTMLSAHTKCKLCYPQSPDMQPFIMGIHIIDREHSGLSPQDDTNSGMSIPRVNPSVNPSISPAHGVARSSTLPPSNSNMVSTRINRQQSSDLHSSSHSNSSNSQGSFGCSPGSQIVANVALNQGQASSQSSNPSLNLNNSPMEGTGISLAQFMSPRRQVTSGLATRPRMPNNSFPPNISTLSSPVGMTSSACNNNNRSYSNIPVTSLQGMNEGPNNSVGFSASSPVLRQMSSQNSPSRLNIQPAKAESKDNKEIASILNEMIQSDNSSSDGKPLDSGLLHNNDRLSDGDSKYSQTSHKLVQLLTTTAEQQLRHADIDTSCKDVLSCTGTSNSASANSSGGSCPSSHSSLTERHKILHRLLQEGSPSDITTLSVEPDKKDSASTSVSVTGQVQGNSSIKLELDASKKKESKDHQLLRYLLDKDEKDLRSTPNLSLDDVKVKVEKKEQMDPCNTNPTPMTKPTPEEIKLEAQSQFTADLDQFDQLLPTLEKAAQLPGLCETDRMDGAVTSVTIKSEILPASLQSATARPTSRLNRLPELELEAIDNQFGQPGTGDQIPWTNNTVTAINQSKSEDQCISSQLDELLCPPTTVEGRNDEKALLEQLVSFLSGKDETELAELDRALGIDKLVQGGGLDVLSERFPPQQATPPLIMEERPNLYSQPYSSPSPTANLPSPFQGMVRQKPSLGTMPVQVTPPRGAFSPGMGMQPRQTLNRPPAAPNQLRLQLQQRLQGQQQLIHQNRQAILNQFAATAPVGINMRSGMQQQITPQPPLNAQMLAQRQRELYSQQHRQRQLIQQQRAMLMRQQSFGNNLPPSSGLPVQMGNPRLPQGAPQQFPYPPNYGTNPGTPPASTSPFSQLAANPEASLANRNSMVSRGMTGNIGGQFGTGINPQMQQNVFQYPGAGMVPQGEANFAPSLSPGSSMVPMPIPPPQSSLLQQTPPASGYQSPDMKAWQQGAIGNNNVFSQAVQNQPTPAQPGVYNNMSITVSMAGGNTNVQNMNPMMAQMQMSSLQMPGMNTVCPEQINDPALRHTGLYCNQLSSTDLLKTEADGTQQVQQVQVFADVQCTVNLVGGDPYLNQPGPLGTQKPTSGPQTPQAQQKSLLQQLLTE

Clc1ccc(-n2nnc(-c3cccnc3Cl)n2)cc1Cl
IC50 (Bcl-2-related protein A1 [1]): > 100 µM (not active)
IC50 (Bcl-2-related protein A1 [2]): > 100 µM (not active)

CCOC(=O)c1s/c(=N\C(=O)c2ccc(OC)c(OC)c2)n(C)c1C
EC50 [3]: 12.2 µM (not active)
EC50 [4]: 8.1 µM (active)
EC50 [5]: 11.4 µM (not active)

CN(C)C(=O)Oc1ccc(OCc2nc3ccccc3[nH]2)cc1
EC50 (BJ [6]): 8.38 µM (inconclusive)
EC50 (BJ [7]): 11.2 µM (inconclusive)
EC50 (BJ [8]): 22.3 µM (active)
EC50 [9]: 8.55 µM (inconclusive)
AC50 [10]: 11.8 µM (active)
AC50 [11]: 13.8 µM (active)
AC50 [12]: 6.62 µM (active)
AC50 [13]: 6.14 µM (active)
AC50 [14]: 10.2 µM (active)

O=C(O)c1cccc(-n2cccc2/C=C\[N+](=O)[O-])c1
EC50 [15]: 83.7 µM (active)
EC50 [16]: 40.8 µM (active)
AC50 [17]: > 20 µM (inactive)

O=C(Cc1nc2ccccc2nc1O)c1ccccc1
EC50 [3]: > 79.4 µM (not active)
EC50 [4]: > 79.4 µM (not active)
EC50 [15]: 42.5 µM (inconclusive)
EC50 [5]: > 79.4 µM (not active)
EC50 (H4): 0.419 µM (active)
EC50 [16]: > 300 µM (inconclusive)

COc1cc2c3c(c1OC)C1(C=CC(=O)C=C1)CC3N(C(=O)CCC(=O)O)CC2 (configuration not stated)
IC50 (Protein Tat): > 100 µM (active)

O=C(Nc1ccccc1)c1cc(C2CCCN(C(=O)C3CC3)C2)on1 (configuration not stated)
AC50 [10]: 49.2 µM (active)
AC50 [11]: > 52 µM (inactive)
AC50 [12]: 7.27 µM (active)
AC50 [13]: 4.34 µM (active)
AC50 [14]: 46.4 µM (active)

Cc1csc(NC(=O)c2sccc2C)n1
AC50 [18]: 26 µM (active)

COc1ccc(/N=C2/S/C(=C\c3ccc(C)o3)C(=O)N2CC(C)C)cc1
IC50 (Protein Tat): > 100 µM (active)

Cc1cc(NC(=O)c2ccc(OCC3CCCO3)cc2)ccc1Br (configuration not stated)
AC50 [18]: 26 µM (active)

O=C(NCc1ccc(Cl)cc1)c1ccc2[nH]cnc2c1
IC50 [19]: > 100 µM (inactive)
IC50 [20]: > 100 µM (not active)

N#CC1(C#N)COC23CCCCC2C1(C#N)C(=N)O3 (configuration not stated)
EC50 [21]: > 195 µM (not active)
IC50 [19]: > 100 µM (inactive)
IC50 [20]: > 100 µM (not active)
